Legend:
[1] = molecular target: human NaV1.7 (with β1 subunit) stably expressed in HEK-293 cells (Homo sapiens (Human), UniProt Q15858); assay: Patch voltage clamp electrophysiology assay (EP), inactivated-state block; format: cell-based; details: membrane potential held at -60 mV; read-out: affinity for the inactivated state of NaV1.7
Experimental: Patch voltage clamp electrophysiology allows for the direct measurement and quantification of block of voltage-gated sodium channels (NaV's), and allows the determination of the time- and voltage-dependence of block which has been interpreted as differential binding to the resting, open, and inactivated states of the sodium channel (Hille, B., Journal of General Physiology (1977), 69: 497-515).
Currents were recorded at 40 kHz sampling frequency, filtered at […], and stored using a Digidata-1322A analogue/digital interface with the pClamp software (Axon Instruments). Series resistance compensation was applied (60-80%). […] All statistics in this study are given as mean±SD.
The membrane potential was maintained at a voltage where inactivation of the channel is complete (which was −60 mV for both NaV1.7 and NaV1.5). The voltage is then stepped back to a very negative (Vhold=[…]) voltage for 20 ms and then a test pulse is applied to quantify the compound block. The 20 ms brief repolarization was long enough for compound-free channels to completely recover from fast inactivation, but the compound-bound channels recovered more slowly such that negligible recovery could occur during this interval. The percent decrease in sodium current following wash-on of compound was taken as the percent block of sodium channels.

hNav1.7 = hNav1.7 (Homo sapiens (Human), UniProt Q15858); assay: Tritiated sulfonamide competitive binding to membranes from cells expressing hNav1.7 and the β1 subunit; details: 100 pM [3H]compound, 18 h, room temperature; inactivated state of NaV1.7 membrane binding; read-out: NaV1.7 Ligand Binding Assay (IC50);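 further: displacement of the tritiated ligand from recombinant cell membranes, read by liquid scintillation counting of filter-bound radioactivity, nonspecific binding defined with 1 µM unlabelled compound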
hNav1.7, sequence (Q15858 other isoform, or with tags, fused parts or gaps): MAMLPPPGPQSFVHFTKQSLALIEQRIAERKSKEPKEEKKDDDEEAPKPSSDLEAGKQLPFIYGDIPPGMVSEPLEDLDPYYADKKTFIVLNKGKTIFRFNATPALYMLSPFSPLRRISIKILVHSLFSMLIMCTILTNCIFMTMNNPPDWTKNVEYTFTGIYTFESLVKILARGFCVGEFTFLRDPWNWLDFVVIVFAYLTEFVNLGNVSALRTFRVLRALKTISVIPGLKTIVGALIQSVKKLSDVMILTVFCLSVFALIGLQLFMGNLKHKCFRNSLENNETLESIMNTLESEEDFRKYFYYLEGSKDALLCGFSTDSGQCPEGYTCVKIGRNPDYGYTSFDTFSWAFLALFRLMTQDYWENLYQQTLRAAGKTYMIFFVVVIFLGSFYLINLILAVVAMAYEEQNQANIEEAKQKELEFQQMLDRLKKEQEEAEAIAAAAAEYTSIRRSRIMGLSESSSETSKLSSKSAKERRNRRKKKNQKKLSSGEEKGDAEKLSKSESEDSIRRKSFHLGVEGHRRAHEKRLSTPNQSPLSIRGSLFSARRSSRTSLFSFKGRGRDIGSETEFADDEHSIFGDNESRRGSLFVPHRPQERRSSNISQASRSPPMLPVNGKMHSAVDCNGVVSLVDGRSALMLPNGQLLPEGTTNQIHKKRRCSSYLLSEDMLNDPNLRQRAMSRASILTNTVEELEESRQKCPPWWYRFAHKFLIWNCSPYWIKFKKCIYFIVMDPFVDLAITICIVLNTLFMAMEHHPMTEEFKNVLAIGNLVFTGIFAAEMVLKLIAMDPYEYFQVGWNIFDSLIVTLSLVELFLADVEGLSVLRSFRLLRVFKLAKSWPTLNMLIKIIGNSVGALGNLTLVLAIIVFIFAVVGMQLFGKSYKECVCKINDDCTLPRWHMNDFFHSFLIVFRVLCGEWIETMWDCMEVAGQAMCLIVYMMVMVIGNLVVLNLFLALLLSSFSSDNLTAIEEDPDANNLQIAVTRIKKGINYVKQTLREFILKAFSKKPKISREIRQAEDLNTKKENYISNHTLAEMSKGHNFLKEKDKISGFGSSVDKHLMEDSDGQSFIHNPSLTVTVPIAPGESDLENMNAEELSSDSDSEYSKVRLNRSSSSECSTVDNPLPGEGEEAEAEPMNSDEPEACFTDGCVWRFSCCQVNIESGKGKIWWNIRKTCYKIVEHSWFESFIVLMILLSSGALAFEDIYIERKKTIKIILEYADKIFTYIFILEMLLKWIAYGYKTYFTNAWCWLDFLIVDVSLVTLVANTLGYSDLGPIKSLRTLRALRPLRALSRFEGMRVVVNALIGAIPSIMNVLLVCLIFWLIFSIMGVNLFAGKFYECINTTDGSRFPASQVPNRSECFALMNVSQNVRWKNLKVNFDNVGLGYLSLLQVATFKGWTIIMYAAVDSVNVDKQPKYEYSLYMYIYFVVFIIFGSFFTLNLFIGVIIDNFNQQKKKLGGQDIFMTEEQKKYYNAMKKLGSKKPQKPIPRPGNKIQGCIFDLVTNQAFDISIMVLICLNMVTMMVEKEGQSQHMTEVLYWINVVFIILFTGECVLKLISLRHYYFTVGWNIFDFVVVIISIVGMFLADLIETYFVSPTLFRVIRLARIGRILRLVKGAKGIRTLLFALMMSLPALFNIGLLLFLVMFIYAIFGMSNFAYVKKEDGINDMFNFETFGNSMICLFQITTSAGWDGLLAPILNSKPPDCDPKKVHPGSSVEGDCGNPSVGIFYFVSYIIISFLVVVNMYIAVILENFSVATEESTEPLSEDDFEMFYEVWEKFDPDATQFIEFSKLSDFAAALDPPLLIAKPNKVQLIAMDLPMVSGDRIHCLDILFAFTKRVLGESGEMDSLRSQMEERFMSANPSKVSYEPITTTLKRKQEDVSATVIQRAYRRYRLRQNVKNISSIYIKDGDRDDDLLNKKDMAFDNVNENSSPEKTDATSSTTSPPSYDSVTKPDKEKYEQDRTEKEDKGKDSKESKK
hNav1.7, sequence (Q07699 19-218 partner): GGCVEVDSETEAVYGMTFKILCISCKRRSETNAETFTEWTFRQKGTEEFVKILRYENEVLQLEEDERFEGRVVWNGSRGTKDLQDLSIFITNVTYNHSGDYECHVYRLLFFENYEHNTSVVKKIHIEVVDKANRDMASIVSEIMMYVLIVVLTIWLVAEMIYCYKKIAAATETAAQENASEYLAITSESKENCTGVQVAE

human NaV1.7 (with β1 subunit) stably expressed in HEK-293 cells, sequence (Q15858 other isoform, or with tags, fused parts or gaps): as the sequence (Q15858 other isoform, or with tags, fused parts or gaps) above
human NaV1.7 (with β1 subunit) stably expressed in HEK-293 cells, sequence (Q07699 19-218 partner): as the sequence (Q07699 19-218 partner) above

Structure (SMILES)	IC50 [1] [nM]	IC50 (hNav1.7) [nM]
CS(=O)(=O)Nc1nnc2cc(OCC3CCCCC3)c(Br)cn12 [Example 6]	–	90.3
CS(=O)(=O)Nc1nnc2cc(OC[C@H]3CC[C@H](C)CC3)c(Br)cn12 [Example 32]	–	86.6
C=C(C)c1cn2c(NS(C)(=O)=O)nnc2cc1OCC12CC3CC(CC(C3)C1)C2 [Example 63, N-(7-((3r,5r,7r)-adamantan-1-ylmethoxy)-6-(prop-1-en-2-yl)-[1,2,4]triazolopyridin-3-yl)methanesulfonamide]	–	51
O=S(=O)(Nc1nnc2cc(OC3C4CC5CC(C4)CC3C5)c(C3CC3)cn12)C1CC1 (stereo not shown) [Example 24, N-(7-(adamantan-2-yloxy)-6-cyclopropyl-[1,2,4]triazolo-[4,3-a]pyridin-3-yl)cyclopropanesulfonamide]	–	65.8
CS(=O)(=O)Nc1nnc2cc(OCC3(C(F)(F)F)CCCC3)c(C3CC3)cn12 [Example 37]	–	45.2
C[C@H](c1cc(Cl)cc(Cl)c1)N1CCC(COc2cc3nnc(NS(C)(=O)=O)n3cc2C2CC2)CC1 [Example 119, (R)—N-(6-cyclopropyl-7-((1-(1-(3,5-dichlorophenyl)ethyl)piperidin-4-yl)methoxy)-[1,2,4]triazolo[4,3-a]pyridin-3-yl)methanesulfonamide]	–	23
O=S(=O)(Nc1nnc2cc(OCC3CCC4(CC3)CC4)c(C3CC3)cn12)C1CC1 [Example 16, N-(6-cyclopropyl-7-(spiro[2.5]octan-6-ylmethoxy)-[1,2,4]triazolo[4,3-a]pyridin-3-yl)cyclopropanesulfonamide]	–	21.7
O=S(=O)(Nc1nnc2cc(O[C@@H]3CCCN(Cc4ccc(F)cc4Cl)C3)c(C3CC3)cn12)C1CC1 [Example 113, (R)—N-(7-((1-(2-chloro-4-fluorobenzyl)piperidin-3-yl)oxy)-6-cyclopropyl-[1,2,4]triazolo[4,3-a]pyridin-3-yl)cyclopropanesulfonamide]	–	34
CCc1cn2c(NS(=O)(=O)N3CC(F)C3)nnc2cc1OCC12CC3CC(CC(C3)C1)C2 [Example 15, N-(7-((3r,5r,7r)-adamantan-1-ylmethoxy)-6-ethyl-[1,2,4]triazolo[4,3-a]pyridin-3-yl)-3-fluoroazetidine-1-sulfonamide]	–	138
C=Cc1cn2c(NS(C)(=O)=O)nnc2cc1OCC1(C)CCCCC1 [Example 7, N-(7-((1-methylcyclohexyl)methoxy)-6-vinyl-[1,2,4]-triazolo[4,3-a]pyridin-3-yl)methanesulfonamide]	–	65.3

Compounds with a lower IC50 (hNav1.7), results first:

IC50 [1] [nM]	IC50 (hNav1.7) [nM]	Structure (SMILES)
2.6	2.6	CS(=O)(=O)Nc1nnc2cc(COc3ccc(Cl)c(Cl)c3)c(Br)cn12 [Example 55, N-(6-bromo-7-((3,4-dichlorophenoxy)methyl)-[1,2,4]-triazolo[4,3-a]pyridin-3-yl)-methanesulfonamide]
–	6	Cc1cc(Cl)cc(OCc2cc3nnc(NS(=O)(=O)C4CC4)n3cc2C2CC2)c1 [Example 103, N-(7-((3-chloro-5-methylphenoxy)methyl)-6-cyclopropyl-[1,2,4]triazolo[4,3-a]pyridin-3-yl)cyclopropanesulfonamide]
–	6.75	CC1(C)[C@H]2CC[C@H](COc3cc4nnc(NS(=O)(=O)N5CCC5)n4cc3C3CC3)[C@@H]1C2 [Example 30]
–	18.4	CS(=O)(=O)Nc1nnc2cc(OC[C@H]3CC[C@H](C)CC3)c(C3CC3)cn12 [Example 33]
–	7	Cc1cc(Cl)cc(OCc2cc3nnc(NS(C)(=O)=O)n3cc2C2CC2)c1 [Example 102, N-(7-((3-chloro-5-methylphenoxy)methyl)-6-cyclopropyl-[1,2,4]triazolo[4,3-a]pyridin-3-yl)methanesulfonamide]
–	4	CCS(=O)(=O)Nc1nnc2cc(OCC34CC5CC(CC(C5)C3)C4)c(C3CC3)cn12 [Example 72, N-(7-((3r,5r,7r)-adamantan-1-ylmethoxy)-6-cyclopropyl-[1,2,4]triazolo[4,3-a]pyridin-3-yl)ethanesulfonamide]
–	2.81	O=S(=O)(Nc1nnc2cc(COc3cc(Cl)cc(OC(F)(F)F)c3)c(C3CC3)cn12)C1CC1 [Example 42, N-(7-((3-chloro-5-(trifluoromethoxy)phenoxy)methyl)-6-cyclopropyl-[1,2,4]triazolo[4,3-a]pyridin-3-yl)cyclopropanesulfonamide]
–	7.35	O=S(=O)(Nc1nnc2cc(OCCC34CC5CC(CC(C5)C3)C4)c(C3CC3)cn12)C1CC1 [Example 22]
–	4	CC1(S(=O)(=O)Nc2nnc3cc(COc4cc(Cl)cc(OC(F)(F)F)c4)c(C4CC4)cn23)CC1 [Example 104, N-(7-((3-chloro-5-(trifluoromethoxy)phenoxy)methyl)-6-cyclopropyl-[1,2,4]triazolo[4,3-a]pyridin-3-yl)-1-methylcyclopropane-1-sulfonamide]
–	14	C[C@H](c1cc(Cl)cc(Cl)c1)N1CCC(C)(COc2cc3nnc(NS(C)(=O)=O)n3cc2C2CC2)CC1 [Example 118, (R)—N-(6-cyclopropyl-7-((1-(1-(3,5-dichlorophenyl)ethyl)-4-methylpiperidin-4-yl)methoxy)-[1,2,4]triazolo[4,3-a]pyridin-3-yl)methanesulfonamide]
–	3	O=S(=O)(Nc1nnc2cc(COc3cc(Cl)cc(OC(F)(F)F)c3)c(C3CC3)cn12)C1CC1 [Example 97, N-(7-((3-chloro-5-(trifluoromethoxy)phenoxy)methyl)-6-cyclopropyl-[1,2,4]triazolo[4,3-a]pyridin-3-yl)cyclopropanesulfonamide]
–	7	CC1(S(=O)(=O)Nc2nnc3cc(OCC45CC6CC(CC(C6)C4)C5)c(C4CC4)cn23)CC1 [Example 74, N-(7-((3r,5r,7r)-adamantan-1-ylmethoxy)-6-cyclopropyl-[1,2,4]triazolo[4,3-a]pyridin-3-yl)-1-methylcyclopropane-1-sulfonamide]
–	7.29	Cc1cc(Cl)cc(OCc2cc3nnc(NS(C)(=O)=O)n3cc2C2CC2)c1 [Example 47, N-(7-((3-chloro-5-methylphenoxy)methyl)-6-cyclopropyl-[1,2,4]triazolo[4,3-a]pyridin-3-yl)methanesulfonamide]
–	18.9	O=S(=O)(Nc1nnc2cc(COc3ccc(Cl)c(Cl)c3)c(C3CC3)cn12)N1CCC1 [Example 41, N-(6-cyclopropyl-7-((3,4-dichlorophenoxy)methyl)-[1,2,4]triazolo[4,3-a]pyridin-3-yl)azetidine-1-sulfonamide]
